Results published in patent US10253039B2, “Inhibitors of bacterial DNA gyrase with efficacy against gram-negative bacteria” (priority 2014, dated 2019).
≈ marks a conversion by molar mass, not a printed value.

Each compound was assayed on E. coli BW25113 (assay: MIC, microdilution in 96-well plates). Conditions: Escherichia coli, BW25113, B: E. coli BW25113; read-out: MIC.
Format: cell-based
Outline: (§1)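 Inoculum 1:10000 (LB, log-phase subculture). Triplicate twofold dilutions plus DMSO column. 37° C., shaken, 16-18 h. Lowest non-turbid well = MIC. CLSI method.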

Structure (SMILES) | MIC
CC(C)Oc1ccc(CN2CC[C@@H](NS(=O)(=O)c3cccc(C(F)(F)F)c3)C2)cc1 [Compound 18] | > 8 µg/mL
N#Cc1cccc(S(=O)(=O)N[C@@H]2CCN(Cc3ccc(OC4CCOCC4)cc3)C2)c1 [Compound 54] | > 8 µg/mL
CC(C)Oc1ccc(CN2CC[C@@H](NS(=O)(=O)c3ccc(Cl)c(C#N)c3)C2)cc1 [Compound 118] | > 8 µg/mL
Cc1nn(C)c2ncc(S(=O)(=O)N[C@@H]3CCN(Cc4ccc(OC(C)C)cc4)C3)cc12 [Compound 123] | > 8 µg/mL
N#Cc1cccc(S(=O)(=O)N[C@@H]2CCN(Cc3ccc(-c4ccccc4Cl)cc3)C2)c1 [Compound 70] | > 8 µg/mL

The compounds below were run on Edwardsiella tarda (assay: MIC, microdilution in 96-well plates). Conditions: D: Edwardsiella tarda.
Format: cell-based
Outline: as §1

Structure (SMILES) | MIC
CC(C)Oc1ccc(CN2CC[C@@H](NS(=O)(=O)c3cccc(C(F)(F)F)c3)C2)cc1 [Compound 18] | > 8 µg/mL
N#Cc1cccc(S(=O)(=O)N[C@@H]2CCN(Cc3ccc(OC4CCOCC4)cc3)C2)c1 [Compound 54] | > 8 µg/mL
CC(C)Oc1ccc(CN2CC[C@@H](NS(=O)(=O)c3ccc(Cl)c(C#N)c3)C2)cc1 [Compound 118] | > 8 µg/mL
Cc1nn(C)c2ncc(S(=O)(=O)N[C@@H]3CCN(Cc4ccc(OC(C)C)cc4)C3)cc12 [Compound 123] | > 8 µg/mL
N#Cc1cccc(S(=O)(=O)N[C@@H]2CCN(Cc3ccc(-c4ccccc4Cl)cc3)C2)c1 [Compound 70] | > 8 µg/mL

What follows are compounds tested on Staphylococcus aureus subsp. aureus (assay: MIC, 20-strain panel). Conditions: H: Staphylococcus aureus subsp. aureus, read-out: MIC.
Format: cell-based
Outline: as §1

Structure (SMILES) | MIC
CC(C)Oc1ccc(CN2CC[C@@H](NS(=O)(=O)c3cccc(C(F)(F)F)c3)C2)cc1 [Compound 18] | > 8 µg/mL
N#Cc1cccc(S(=O)(=O)N[C@@H]2CCN(Cc3ccc(OC4CCOCC4)cc3)C2)c1 [Compound 54] | > 8 µg/mL
CC(C)Oc1ccc(CN2CC[C@@H](NS(=O)(=O)c3ccc(Cl)c(C#N)c3)C2)cc1 [Compound 118] | > 8 µg/mL
Cc1nn(C)c2ncc(S(=O)(=O)N[C@@H]3CCN(Cc4ccc(OC(C)C)cc4)C3)cc12 [Compound 123] | > 8 µg/mL
N#Cc1cccc(S(=O)(=O)N[C@@H]2CCN(Cc3ccc(-c4ccccc4Cl)cc3)C2)c1 [Compound 70] | > 8 µg/mL

These compounds were tested on E. coli MG1655 (assay: MIC, 20-strain panel). Conditions: Escherichia coli, MG1655, A: E. coli MG1655; read-out: MIC.
Format: cell-based
Outline: as §1

Structure (SMILES) | MIC
CC(C)Oc1ccc(CN2CC[C@@H](NS(=O)(=O)c3cccc(C(F)(F)F)c3)C2)cc1 [Compound 18] | > 8 µg/mL
N#Cc1cccc(S(=O)(=O)N[C@@H]2CCN(Cc3ccc(OC4CCOCC4)cc3)C2)c1 [Compound 54] | > 8 µg/mL
CC(C)Oc1ccc(CN2CC[C@@H](NS(=O)(=O)c3ccc(Cl)c(C#N)c3)C2)cc1 [Compound 118] | > 8 µg/mL
Cc1nn(C)c2ncc(S(=O)(=O)N[C@@H]3CCN(Cc4ccc(OC(C)C)cc4)C3)cc12 [Compound 123] | > 8 µg/mL
N#Cc1cccc(S(=O)(=O)N[C@@H]2CCN(Cc3ccc(-c4ccccc4Cl)cc3)C2)c1 [Compound 70] | > 8 µg/mL

These compounds were tested on Klebsiella pneumoniae subsp. pneumoniae (assay: MIC, 20-strain panel). Conditions: E: Klebsiella pneumoniae subsp. pneumoniae.
Format: cell-based
Outline: as §1

Structure (SMILES) | MIC
CC(C)Oc1ccc(CN2CC[C@@H](NS(=O)(=O)c3cccc(C(F)(F)F)c3)C2)cc1 [Compound 18] | > 8 µg/mL
N#Cc1cccc(S(=O)(=O)N[C@@H]2CCN(Cc3ccc(OC4CCOCC4)cc3)C2)c1 [Compound 54] | > 8 µg/mL
CC(C)Oc1ccc(CN2CC[C@@H](NS(=O)(=O)c3ccc(Cl)c(C#N)c3)C2)cc1 [Compound 118] | > 8 µg/mL
Cc1nn(C)c2ncc(S(=O)(=O)N[C@@H]3CCN(Cc4ccc(OC(C)C)cc4)C3)cc12 [Compound 123] | > 8 µg/mL
N#Cc1cccc(S(=O)(=O)N[C@@H]2CCN(Cc3ccc(-c4ccccc4Cl)cc3)C2)c1 [Compound 70] | > 8 µg/mL

What follows are compounds tested on Shigella flexneri (assay: MIC, 20-strain panel). Conditions: G: Shigella flexneri.
Format: cell-based
Outline: as §1

Structure (SMILES) | MIC
CC(C)Oc1ccc(CN2CC[C@@H](NS(=O)(=O)c3cccc(C(F)(F)F)c3)C2)cc1 [Compound 18] | > 8 µg/mL
N#Cc1cccc(S(=O)(=O)N[C@@H]2CCN(Cc3ccc(OC4CCOCC4)cc3)C2)c1 [Compound 54] | > 8 µg/mL
CC(C)Oc1ccc(CN2CC[C@@H](NS(=O)(=O)c3ccc(Cl)c(C#N)c3)C2)cc1 [Compound 118] | > 8 µg/mL
Cc1nn(C)c2ncc(S(=O)(=O)N[C@@H]3CCN(Cc4ccc(OC(C)C)cc4)C3)cc12 [Compound 123] | > 8 µg/mL
N#Cc1cccc(S(=O)(=O)N[C@@H]2CCN(Cc3ccc(-c4ccccc4Cl)cc3)C2)c1 [Compound 70] | > 8 µg/mL

What follows are compounds tested on E. coli JW5503 (deltolC) (assay: MIC, 20-strain panel). Conditions: Escherichia coli, C: E. coli JW5503 (deltolC).
Format: cell-based
Outline: as §1

Structure (SMILES) | MIC
CC(C)Oc1ccc(CN2CC[C@@H](NS(=O)(=O)c3cccc(C(F)(F)F)c3)C2)cc1 [Compound 18] | 0.5 µg/mL (≈ 1.13 µM)
N#Cc1cccc(S(=O)(=O)N[C@@H]2CCN(Cc3ccc(OC4CCOCC4)cc3)C2)c1 [Compound 54] | 2 µg/mL (≈ 4.53 µM)
CC(C)Oc1ccc(CN2CC[C@@H](NS(=O)(=O)c3ccc(Cl)c(C#N)c3)C2)cc1 [Compound 118] | > 8 µg/mL
Cc1nn(C)c2ncc(S(=O)(=O)N[C@@H]3CCN(Cc4ccc(OC(C)C)cc4)C3)cc12 [Compound 123] | > 8 µg/mL
N#Cc1cccc(S(=O)(=O)N[C@@H]2CCN(Cc3ccc(-c4ccccc4Cl)cc3)C2)c1 [Compound 70] | 1 µg/mL (≈ 2.21 µM)

Each compound was assayed on Streptococcus pyogenes (assay: MIC, 20-strain panel). Conditions: not given.
Format: cell-based
Outline: as §1

Structure (SMILES) | MIC
CC(C)Oc1ccc(CN2CC[C@@H](NS(=O)(=O)c3cccc(C(F)(F)F)c3)C2)cc1 [Compound 18] | > 8 µg/mL
N#Cc1cccc(S(=O)(=O)N[C@@H]2CCN(Cc3ccc(OC4CCOCC4)cc3)C2)c1 [Compound 54] | > 8 µg/mL
CC(C)Oc1ccc(CN2CC[C@@H](NS(=O)(=O)c3ccc(Cl)c(C#N)c3)C2)cc1 [Compound 118] | > 8 µg/mL
Cc1nn(C)c2ncc(S(=O)(=O)N[C@@H]3CCN(Cc4ccc(OC(C)C)cc4)C3)cc12 [Compound 123] | > 8 µg/mL
N#Cc1cccc(S(=O)(=O)N[C@@H]2CCN(Cc3ccc(-c4ccccc4Cl)cc3)C2)c1 [Compound 70] | > 8 µg/mL

These compounds were tested on Staphylococcus saprophyticus subsp. saprophyticus (assay: MIC, 20-strain panel). Conditions: not given.
Format: cell-based
Outline: as §1

Structure (SMILES) | MIC
CC(C)Oc1ccc(CN2CC[C@@H](NS(=O)(=O)c3cccc(C(F)(F)F)c3)C2)cc1 [Compound 18] | > 8 µg/mL
N#Cc1cccc(S(=O)(=O)N[C@@H]2CCN(Cc3ccc(OC4CCOCC4)cc3)C2)c1 [Compound 54] | > 8 µg/mL
CC(C)Oc1ccc(CN2CC[C@@H](NS(=O)(=O)c3ccc(Cl)c(C#N)c3)C2)cc1 [Compound 118] | > 8 µg/mL
Cc1nn(C)c2ncc(S(=O)(=O)N[C@@H]3CCN(Cc4ccc(OC(C)C)cc4)C3)cc12 [Compound 123] | > 8 µg/mL
N#Cc1cccc(S(=O)(=O)N[C@@H]2CCN(Cc3ccc(-c4ccccc4Cl)cc3)C2)c1 [Compound 70] | > 8 µg/mL

These compounds were tested on Staphylococcus epidermidis (assay: MIC, 20-strain panel). Conditions: not given.
Format: cell-based
Outline: as §1

Structure (SMILES) | MIC
CC(C)Oc1ccc(CN2CC[C@@H](NS(=O)(=O)c3cccc(C(F)(F)F)c3)C2)cc1 [Compound 18] | > 8 µg/mL
N#Cc1cccc(S(=O)(=O)N[C@@H]2CCN(Cc3ccc(OC4CCOCC4)cc3)C2)c1 [Compound 54] | > 8 µg/mL
CC(C)Oc1ccc(CN2CC[C@@H](NS(=O)(=O)c3ccc(Cl)c(C#N)c3)C2)cc1 [Compound 118] | > 8 µg/mL
Cc1nn(C)c2ncc(S(=O)(=O)N[C@@H]3CCN(Cc4ccc(OC(C)C)cc4)C3)cc12 [Compound 123] | > 8 µg/mL
N#Cc1cccc(S(=O)(=O)N[C@@H]2CCN(Cc3ccc(-c4ccccc4Cl)cc3)C2)c1 [Compound 70] | 8 µg/mL (≈ 17.7 µM)

These compounds were tested on Streptococcus agalactiae (assay: MIC, 20-strain panel). Conditions: not given.
Format: cell-based
Outline: as §1

Structure (SMILES) | MIC
CC(C)Oc1ccc(CN2CC[C@@H](NS(=O)(=O)c3cccc(C(F)(F)F)c3)C2)cc1 [Compound 18] | > 8 µg/mL
N#Cc1cccc(S(=O)(=O)N[C@@H]2CCN(Cc3ccc(OC4CCOCC4)cc3)C2)c1 [Compound 54] | > 8 µg/mL
CC(C)Oc1ccc(CN2CC[C@@H](NS(=O)(=O)c3ccc(Cl)c(C#N)c3)C2)cc1 [Compound 118] | > 8 µg/mL
Cc1nn(C)c2ncc(S(=O)(=O)N[C@@H]3CCN(Cc4ccc(OC(C)C)cc4)C3)cc12 [Compound 123] | > 8 µg/mL
N#Cc1cccc(S(=O)(=O)N[C@@H]2CCN(Cc3ccc(-c4ccccc4Cl)cc3)C2)c1 [Compound 70] | > 8 µg/mL

The compounds below were run on Salmonella enterica subsp. enterica typhimurium (assay: MIC, 20-strain panel). Conditions: F: Salmonella enterica subsp. enterica Typhimurium.
Format: cell-based
Outline: as §1

Structure (SMILES) | MIC
CC(C)Oc1ccc(CN2CC[C@@H](NS(=O)(=O)c3cccc(C(F)(F)F)c3)C2)cc1 [Compound 18] | 8 µg/mL (≈ 18.1 µM)
N#Cc1cccc(S(=O)(=O)N[C@@H]2CCN(Cc3ccc(OC4CCOCC4)cc3)C2)c1 [Compound 54] | 8 µg/mL (≈ 18.1 µM)
CC(C)Oc1ccc(CN2CC[C@@H](NS(=O)(=O)c3ccc(Cl)c(C#N)c3)C2)cc1 [Compound 118] | > 8 µg/mL
Cc1nn(C)c2ncc(S(=O)(=O)N[C@@H]3CCN(Cc4ccc(OC(C)C)cc4)C3)cc12 [Compound 123] | > 8 µg/mL
N#Cc1cccc(S(=O)(=O)N[C@@H]2CCN(Cc3ccc(-c4ccccc4Cl)cc3)C2)c1 [Compound 70] | > 8 µg/mL
